BindingDB's records for doi:10.1021/jm5015814 (Slovak Academy of Sciences, 2015)

Target: Aldehyde reductase AKR1A1 (Rattus norvegicus)
Test: Inhibition of Wistar rat kidney aldehyde reductase using D-glucuronate as substrate by spectrophotometry

| IC50 [µM] | Compound |
| --- | --- |
| 68.4 | CC(C)(C)C(=O)c1cn(CC(=O)O)c2ccccc12 |
| 19.6 | CCCNC(=O)CSc1nnc2c3cc(C)ccc3n(CC(=O)O)c2n1 |
| 80.2 | O=C(O)Cn1ccc2ccccc21 [CHEBI:72814] |
| 24.8 | O=C(O)Cn1c2ccccc2c2nc3ccccc3nc21 |
